“Also recorded” adds a separate entry of the source. Like-named read-outs stand apart in the source and are kept apart here.
Assays:
HDAC8 = HDAC8 (Homo sapiens, UniProt Q9BY41); test: HDAC8 activity inhibition; assay type: biochemical
HDAC4 = HDAC4 (Homo sapiens, UniProt P56524); test: HDAC4 activity inhibition; assay type: biochemical
Leishmania infantum = test: Efficacy in mice infected with Leishmania infantum, 21-day treatment, limiting dilution assay; assay type: in vivo, BALB/c mice
Description: The rationale for the choice of four doses was to enable dose dependent information in activity and toxicity. The wait period of 15 days after treatment end enabled the follow up of reappearance of infection and also the determination of the time dependent compound elimination. […] Three days after the last treatment the mice were euthanized and parasite burden (log number of parasites/mg of organ) was evaluated by limiting dilution assay, essentially as described in Tavares. J. et al (Methods Mol Biol, 2019; 1971:289-301), in the spleen (FIG. 2B) and in the liver (FIG. 2C). Data represent the mean±SD, *p<0.05, **p<0.01 (One way ANOVA with Dunnett's test) in comparison with the untreated group.

W1-38 = test: Early toxicity: W1-38 cell growth; assay type: cell-based; settings: for Avg % Cell growth W1-38: Table 5
HDAC9 = HDAC9 (Homo sapiens, UniProt Q9UKV0); test: HDAC9 activity inhibition; assay type: biochemical
Human Erythrocytes = test: In vitro Hemolytic Activity in Human Erythrocytes; assay type: cell-based; settings: for Hemolysis at 100 μM (%) / Hemolysis, HC50: human erythrocytes
Description: The assay, which is an indicator of the toxic insult of a compound on the erythrocyte membrane is performed essentially as described in (Calogeropoulou T. et al., J. Med. Chem. 2008, 51, 897-908). […] [table]

[1] = test system: T. b. brucei L427 WT Blood-Stream Form; test: Anti-parasitic activity against T. b. brucei blood-stream form (resazurin 72 h assay); assay type: cell-based; settings: for IC50: 72 h, read-out: Dose Response Curves IC50 ± SD (μM)
CYP3A4 = CYP3A4 (Homo sapiens, UniProt P08684); test: Early toxicity: CYP3A4 inhibition; assay type: in vitro ADME; settings: human, 10 μM
hERG channel [2] = molecular target: T1, hERG channel (Homo sapiens, UniProt Q12809)
[3] = test system: T. brucei brucei Lister 427 expressing red-shifted luciferase; test: Efficacy in HAT mice model (acute T. b. brucei infection), live imaging; assay type: in vivo, BALB/c mice; settings: for infection outcome (words): 50 mg/kg/day PO, 7 consecutive days
Source text: (B) Overall evolution of parasite burden assessed by live imaging using IVIS Lumina LT (Perkin Elmer) during and after treatment. T. b. brucei Lister 427 expressing red-shifted luciferase was used in these experiments. DX is the day post treatment. (C) Quantification of bioluminescent signal plotted as average radiance (p/s/cm^2/sr) during and after treatment.
In addition, 5-cyclopentadecylpentyl (2-(trimethylammonio) ethyl) phosphate (19) was effective per os in vivo against T. brucei acute model of infection and also against the long lasting chronic infection model. […] The daily treatment with 50 mg/kg for 13 days lead to a significant decrease of infection and increase in animal survival. […] Altogether 5-cyclopentadecylpentyl (2-(trimethylammonio) ethyl) phosphate (19) is effective in the BALB/c infection model for T. brucei being a possible therapeutical option both for HAT stage I and II.
T. brucei brucei Lister 427 expressing red-shifted luciferase was used in these experiments as described for L. infantum in vivo infection in (Graça N A et al., Antimicrob Agents Chemother. 2016 Mar. 25; 60(4):2532-6). The overall evolution of parasite burden assessed by live imaging using IVIS Lumina LT (Perkin Elmer) during and after treatment. […] To confirm this possibility, the treated mice immune system was suppressed with cyclophosphamide. […] The advantage over pentamidine is the oral administration of compound 19 versus ip administration of pentamidine.

CYP2D6 = CYP2D6 (Homo sapiens, UniProt P10635); test: Early toxicity: CYP2D6 inhibition; assay type: in vitro ADME; settings: human, mean ± SD, Table 4a
[4] = Maximum tolerated dose and dose range finding, 7 days oral gavage; settings: for average weight loss at the end of the experiment: 7 days; for MTD at 7 days: BALB/c, mouse, in vivo, oral
Source text: The primary objective of the dose range finding study is to establish the maximum tolerated dose (MTD) as determined by parameters such as clinical signs and reductions in body weight and food consumption, and to provide the data for appropriate dose selection in subsequent regulatory toxicology studies.

[5] = test system: L. infantum axenic amastigotes expressing luciferase; test: In vivo model of infection with L. infantum axenic amastigotes expressing luciferase; settings: ten consecutive oral treatments with 10 mg/kg, 2 weeks after last treatment
Description: FIG. 4 illustrates the in vivo activity of compounds 18 and 19 in a model of infection with L. infantum axenic amastigotes expressing luciferase (10 consecutive treatments with 10 mg/kg of each compound, evaluated by limiting dilution assay 2 weeks after the last treatment).
In vivo activity of compounds 18 and 19 (ten consecutive oral treatments with 10 mg/kg of each compound, followed by a break of 2 weeks after last treatment), was studied in a model of infection with axenic amastigotes expressing luciferase, essentially as described in (Mendes Costa D. et al, J. Sci Rep. 2019 Dec. 12; 9(1):18989; Tavares J. et al., Methods Mol Biol. 2019; 1971:289-301). (FIG. 4).

hERG channel [6] = molecular target: T1, hERG channel; test: Early toxicity: hERG inhibition
[7] = test system: Salmonella TA98 (frameshift mutations); assay type: cell-based
Description: The test has been performed in duplicate as separate experiments (Table 9). Two different Salmonella strains were tested; TA98 (frameshift mutations) and TA100 (base pair substitutions, primarily at one of the GC pairs). Values above 15 represent genotoxicity.

Aurora B kinase = Aurora B kinase (Homo sapiens, UniProt Q96GD4); test: Early toxicity: Aurora B kinase inhibition; assay type: biochemical; settings: Table 5
[8] = Table 5, read-out: Avg % inhibition CYP3A4
[9] = mean ± SD, Table 4a, read-out: % inhibition CYP3A4

Sequence of CYP3A4 (P08684 whole entry): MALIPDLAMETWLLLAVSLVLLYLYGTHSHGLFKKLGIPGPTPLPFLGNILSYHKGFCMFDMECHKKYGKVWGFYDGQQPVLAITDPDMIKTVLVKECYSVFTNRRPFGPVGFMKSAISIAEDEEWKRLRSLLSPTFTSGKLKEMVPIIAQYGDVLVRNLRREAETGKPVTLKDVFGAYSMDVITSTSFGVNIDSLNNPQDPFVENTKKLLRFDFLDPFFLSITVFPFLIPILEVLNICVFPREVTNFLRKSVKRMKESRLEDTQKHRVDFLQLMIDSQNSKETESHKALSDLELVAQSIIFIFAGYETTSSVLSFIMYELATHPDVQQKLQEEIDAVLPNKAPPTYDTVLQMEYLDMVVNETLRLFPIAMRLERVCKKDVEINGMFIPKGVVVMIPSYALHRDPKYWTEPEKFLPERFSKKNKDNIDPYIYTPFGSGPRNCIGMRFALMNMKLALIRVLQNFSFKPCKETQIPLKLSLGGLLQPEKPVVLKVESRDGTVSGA
T1 sequence (Q12809 whole entry): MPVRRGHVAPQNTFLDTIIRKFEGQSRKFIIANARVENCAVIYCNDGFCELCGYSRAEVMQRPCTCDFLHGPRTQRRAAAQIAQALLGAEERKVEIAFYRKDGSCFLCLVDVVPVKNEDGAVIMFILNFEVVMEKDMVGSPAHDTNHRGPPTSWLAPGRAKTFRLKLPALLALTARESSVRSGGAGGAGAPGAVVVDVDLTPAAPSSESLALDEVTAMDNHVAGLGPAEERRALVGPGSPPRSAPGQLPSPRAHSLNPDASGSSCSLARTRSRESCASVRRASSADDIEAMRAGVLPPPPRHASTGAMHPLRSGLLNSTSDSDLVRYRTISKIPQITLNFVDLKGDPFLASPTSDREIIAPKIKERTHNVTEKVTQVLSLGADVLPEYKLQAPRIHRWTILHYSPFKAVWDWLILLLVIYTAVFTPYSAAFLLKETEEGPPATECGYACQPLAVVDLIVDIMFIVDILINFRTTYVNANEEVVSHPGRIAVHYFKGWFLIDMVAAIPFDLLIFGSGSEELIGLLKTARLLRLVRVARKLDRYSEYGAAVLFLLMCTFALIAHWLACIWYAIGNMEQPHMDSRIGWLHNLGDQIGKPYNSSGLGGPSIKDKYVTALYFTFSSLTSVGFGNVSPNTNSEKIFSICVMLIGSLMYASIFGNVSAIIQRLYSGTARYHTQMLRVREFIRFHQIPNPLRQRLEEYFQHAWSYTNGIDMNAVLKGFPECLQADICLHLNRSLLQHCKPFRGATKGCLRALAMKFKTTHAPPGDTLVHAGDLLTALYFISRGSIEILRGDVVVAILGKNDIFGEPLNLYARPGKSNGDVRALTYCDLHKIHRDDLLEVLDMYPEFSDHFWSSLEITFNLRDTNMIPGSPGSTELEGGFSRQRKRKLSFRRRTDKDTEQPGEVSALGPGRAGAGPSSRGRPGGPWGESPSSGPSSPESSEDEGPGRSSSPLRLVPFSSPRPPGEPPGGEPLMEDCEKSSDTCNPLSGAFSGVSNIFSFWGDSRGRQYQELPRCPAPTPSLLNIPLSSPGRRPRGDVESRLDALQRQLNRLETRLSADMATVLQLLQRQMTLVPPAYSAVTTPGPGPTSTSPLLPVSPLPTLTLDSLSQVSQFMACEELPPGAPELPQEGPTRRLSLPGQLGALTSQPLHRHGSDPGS
Sequence of HDAC8 (Q9BY41 whole entry, species assumed): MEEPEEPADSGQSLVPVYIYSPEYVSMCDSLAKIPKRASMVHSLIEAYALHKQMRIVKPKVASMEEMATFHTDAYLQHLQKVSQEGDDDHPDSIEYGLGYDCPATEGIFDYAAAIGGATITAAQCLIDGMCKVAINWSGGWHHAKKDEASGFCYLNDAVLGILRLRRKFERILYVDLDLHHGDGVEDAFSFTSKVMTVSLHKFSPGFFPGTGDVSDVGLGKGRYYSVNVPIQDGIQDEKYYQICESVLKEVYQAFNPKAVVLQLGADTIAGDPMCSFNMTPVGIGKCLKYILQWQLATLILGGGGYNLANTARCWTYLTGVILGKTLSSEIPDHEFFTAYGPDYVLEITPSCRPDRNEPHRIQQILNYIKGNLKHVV
Sequence of CYP2D6 (P10635 whole entry): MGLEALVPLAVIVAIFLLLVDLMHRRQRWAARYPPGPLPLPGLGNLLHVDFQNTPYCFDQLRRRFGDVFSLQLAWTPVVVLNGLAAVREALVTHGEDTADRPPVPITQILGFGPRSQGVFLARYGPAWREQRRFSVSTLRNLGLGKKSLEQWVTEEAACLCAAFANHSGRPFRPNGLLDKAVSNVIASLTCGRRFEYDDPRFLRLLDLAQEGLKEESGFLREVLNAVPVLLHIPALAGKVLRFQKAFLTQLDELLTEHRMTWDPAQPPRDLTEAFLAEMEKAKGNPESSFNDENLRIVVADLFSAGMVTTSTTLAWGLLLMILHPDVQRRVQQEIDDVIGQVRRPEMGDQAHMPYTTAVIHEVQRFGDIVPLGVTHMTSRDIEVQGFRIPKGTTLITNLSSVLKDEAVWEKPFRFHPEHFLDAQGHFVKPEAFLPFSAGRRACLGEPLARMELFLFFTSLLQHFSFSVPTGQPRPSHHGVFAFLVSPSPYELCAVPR
Sequence of HDAC9 (Q9UKV0 whole entry, species assumed): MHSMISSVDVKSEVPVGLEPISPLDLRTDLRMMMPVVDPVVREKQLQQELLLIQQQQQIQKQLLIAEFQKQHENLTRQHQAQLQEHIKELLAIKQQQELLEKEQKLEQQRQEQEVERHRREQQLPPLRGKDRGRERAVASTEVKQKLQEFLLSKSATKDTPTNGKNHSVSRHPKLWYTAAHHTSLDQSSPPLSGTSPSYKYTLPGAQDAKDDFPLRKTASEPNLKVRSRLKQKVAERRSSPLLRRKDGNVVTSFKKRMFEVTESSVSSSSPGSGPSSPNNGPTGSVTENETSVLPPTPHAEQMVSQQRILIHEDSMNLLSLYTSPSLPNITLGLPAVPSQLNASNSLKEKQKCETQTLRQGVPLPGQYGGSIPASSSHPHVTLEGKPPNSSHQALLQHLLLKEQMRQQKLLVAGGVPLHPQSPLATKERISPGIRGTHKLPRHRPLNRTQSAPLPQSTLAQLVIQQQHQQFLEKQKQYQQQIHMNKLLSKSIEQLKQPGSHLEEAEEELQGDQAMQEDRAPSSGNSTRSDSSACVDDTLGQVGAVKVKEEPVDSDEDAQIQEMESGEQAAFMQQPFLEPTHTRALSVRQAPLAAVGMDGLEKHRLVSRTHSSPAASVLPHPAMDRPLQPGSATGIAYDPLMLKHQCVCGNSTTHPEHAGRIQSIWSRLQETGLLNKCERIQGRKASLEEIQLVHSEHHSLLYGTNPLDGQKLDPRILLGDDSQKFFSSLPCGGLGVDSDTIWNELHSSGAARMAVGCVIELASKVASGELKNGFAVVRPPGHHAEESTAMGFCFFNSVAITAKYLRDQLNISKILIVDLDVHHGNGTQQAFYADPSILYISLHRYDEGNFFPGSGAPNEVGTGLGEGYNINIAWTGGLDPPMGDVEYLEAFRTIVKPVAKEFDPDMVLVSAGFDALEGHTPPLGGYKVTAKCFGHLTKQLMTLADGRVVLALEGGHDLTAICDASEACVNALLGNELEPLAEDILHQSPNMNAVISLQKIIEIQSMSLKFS
Sequence of HDAC4 (P56524 whole entry, species assumed): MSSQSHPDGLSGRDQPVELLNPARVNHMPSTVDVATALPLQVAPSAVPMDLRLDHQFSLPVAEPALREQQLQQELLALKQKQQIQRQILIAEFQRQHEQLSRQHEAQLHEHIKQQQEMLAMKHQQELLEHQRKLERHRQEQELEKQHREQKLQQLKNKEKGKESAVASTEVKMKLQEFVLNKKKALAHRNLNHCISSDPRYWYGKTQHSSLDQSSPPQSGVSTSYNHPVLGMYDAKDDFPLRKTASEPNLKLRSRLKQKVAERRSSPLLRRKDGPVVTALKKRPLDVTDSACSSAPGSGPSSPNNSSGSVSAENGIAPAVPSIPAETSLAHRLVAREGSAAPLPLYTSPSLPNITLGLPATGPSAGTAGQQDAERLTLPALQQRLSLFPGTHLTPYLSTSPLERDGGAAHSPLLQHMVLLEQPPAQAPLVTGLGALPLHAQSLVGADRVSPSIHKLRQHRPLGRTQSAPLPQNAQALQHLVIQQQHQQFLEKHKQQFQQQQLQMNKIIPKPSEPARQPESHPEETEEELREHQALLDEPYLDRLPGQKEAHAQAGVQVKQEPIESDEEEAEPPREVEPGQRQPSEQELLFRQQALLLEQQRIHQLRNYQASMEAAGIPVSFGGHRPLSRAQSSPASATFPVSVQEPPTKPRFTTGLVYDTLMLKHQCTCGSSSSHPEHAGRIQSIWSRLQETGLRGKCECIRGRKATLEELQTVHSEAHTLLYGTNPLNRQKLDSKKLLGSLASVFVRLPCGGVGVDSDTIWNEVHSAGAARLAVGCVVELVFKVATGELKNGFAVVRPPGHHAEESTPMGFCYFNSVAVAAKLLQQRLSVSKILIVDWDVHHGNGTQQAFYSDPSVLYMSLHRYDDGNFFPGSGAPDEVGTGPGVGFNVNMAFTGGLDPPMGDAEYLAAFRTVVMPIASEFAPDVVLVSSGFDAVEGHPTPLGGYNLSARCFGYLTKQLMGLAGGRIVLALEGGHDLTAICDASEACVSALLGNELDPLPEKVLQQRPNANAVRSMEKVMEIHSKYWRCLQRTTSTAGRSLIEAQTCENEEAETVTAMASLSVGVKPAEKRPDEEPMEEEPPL
Sequence of Aurora B kinase (Q96GD4 whole entry): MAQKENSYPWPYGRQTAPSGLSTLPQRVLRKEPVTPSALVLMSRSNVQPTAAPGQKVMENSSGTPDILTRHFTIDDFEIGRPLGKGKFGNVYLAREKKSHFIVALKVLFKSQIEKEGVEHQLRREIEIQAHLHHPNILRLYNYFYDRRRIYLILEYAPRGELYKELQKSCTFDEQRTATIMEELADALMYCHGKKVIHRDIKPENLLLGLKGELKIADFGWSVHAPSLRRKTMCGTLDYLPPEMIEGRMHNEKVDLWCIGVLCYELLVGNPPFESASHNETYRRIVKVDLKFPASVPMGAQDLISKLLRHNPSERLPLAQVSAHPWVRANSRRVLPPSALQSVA

SMILES: CCCCCCCCCCCCCCCCOP(=O)([O-])OCC[N+](C)(C)C [Miltefosine, hexadecylphosphocholine, reference compound]
- inhibition of the activity of HDAC8 (HDAC8; 10 μM): did not inhibit
- inhibition of the activity of HDAC4 (HDAC4; 10 μM): did not inhibit
- parasite burden reduction, liver (Leishmania infantum; miltefosine 2.5 mg/kg, 21 consecutive days): 98%
- parasite burden in the spleen (Leishmania infantum; miltefosine 10 mg/kg, oral gavage, 21 consecutive days): one of the animals presented detected parasites in the spleen
- parasite burden (Leishmania infantum; miltefosine 20 mg/kg, oral gavage, 21 consecutive days): maintained parasite burden under the detection limit
- parasite burden in the liver (Leishmania infantum; miltefosine 20, 10, 5 mg/kg, 21 consecutive days): parasite burdens under the detection limit
- parasite burden reduction, spleen (Leishmania infantum; miltefosine lower doses (5 and 2.5 mg/kg), 21 consecutive days): more than 99%
- Avg % Cell growth W1-38 (W1-38; 10 μM): 113.50 ± 26.66 (10 μM) %
- % cell growth W1-38 (W1-38; at 1 μM): 113.5 ± 26.66%
- inhibition of the activity of HDAC9 (HDAC9; 10 μM): did not inhibit
- Hemolysis at 100 μM (%) (Human Erythrocytes; 100 μM): 96.1%
- Hemolysis, HC50 (Human Erythrocytes): 38.3 ± 2.8 µM
- IC50 ([1]; Trypanosoma brucei): 33.9 ± 0.5 µM
- inhibition at 10 µM (CYP3A4; [8]): 8.39 ± 8.99%
- inhibition at 10 µM (CYP3A4; [9]): 8.39 ± 8.99%
- Flag for Interference, hERG (hERG channel [2]): (no)
- infection outcome (words) [3]: no in vivo activity
- infection outcome (words) ([3]; listed as miltefosine): did not work at all
- inhibition at 10 µM (CYP2D6): 30.8 ± 16.7%
- average weight loss at the end of the experiment ([4]; 50 mg/kg daily oral gavage): 11±3%
- food intake compared to the equivalent treatment of compound 19 ([4]; 100 mg/kg): significant lesser food intake
- day from which weight loss was significant ([4]; 100 mg/kg daily oral gavage): 4 days
- average weight loss at the end of the experiment ([4]; 100 mg/kg daily oral gavage): 19±6%
- MTD at 7 days [4]: 50 mg/kg

SMILES: C[N+](C)(C)CCOP(=O)([O-])OCCCCCC1CCCCCCCCCCCCCC1 [Compound 19, 5-cyclopentadecylpentyl (2-(trimethylammonio)ethyl) phosphate]
- effect on HDACr (HDAC8; 100 μM): not considered significant
- inhibition of the activity of HDAC4 (HDAC4; 100 μM): does not inhibit
- parasites in the bone marrow [5]: under the detection limit
- average reduction of parasite burden, spleen (Leishmania infantum; compound 19 2.5 mg/kg every other day for 21 days): 98%
- parasite burden, spleen and liver (Leishmania infantum; compound 19 every other day for 21 days, 20, 10, 5, 2.5 mg/kg, except 2.5 mg/kg in the spleen): maintained parasite burden under the detection limit
- % cell growth W1-38 (W1-38; 10 μM): 95.66 ± 19.68%
- Avg % Cell growth W1-38 (W1-38; 10 μM): 95.66 ± 19.68 (10 μM) %
- Flag for Interference, hERG (hERG channel [6]; Table 4b): (no)
- inhibition at 10 µM (hERG channel [6]; human): 4.06 ± 2.07%
- inhibition of the activity of HDAC9 (HDAC9; 100 μM): does not inhibit
- percentage of hemolytic activity lower than miltefosine (Human Erythrocytes; 100 μM): approximately 11 fold
- Hemolysis at 100 μM (%) (Human Erythrocytes; 100 μM): 8.7%
- Hemolysis, HC50 (Human Erythrocytes): >100 µM
- Ames mutagenicity TA98 (values above 15 represent genotoxicity) ([7]; 3.125 μM): 11.0 ± 8.48
- Ames mutagenicity TA98 (values above 15 represent genotoxicity) ([7]; 6.25 μM): 13.0 ± 2.83
- Ames mutagenicity TA98 (values above 15 represent genotoxicity) ([7]; 12.5 μM): 12.5 ± 4.95
- Ames mutagenicity TA98 (values above 15 represent genotoxicity) ([7]; 25 μM): 6.5 ± 3.53
- Ames mutagenicity TA98 (values above 15 represent genotoxicity) ([7]; 50 μM): 11 ± 2.82
- Ames mutagenicity TA98 (values above 15 represent genotoxicity) ([7]; 100 μM): 11.0 ± 1.41
- mutagenicity, TA98 ([7]; up to 100 μM): does not exhibit mutagenicity
- activity against T. b. brucei blood-stream form ([1]; Table 2): unexpectedly high activity in the low micromolar range
- IC50 ([1]; Trypanosoma brucei): 4.47 ± 0.2 µM
- inhibition at 10 µM ([1]; Trypanosoma brucei, read-out: Single Dose Assay 10 μM Mean Inhibitory Activity (%) ± SD): 99 ± 1%
- Selectivity Index CC50/IC50 or NOAEL/IC50 ([1]; toxicity / T. b. brucei IC50, Table 2): >22
- inhibition at 10 µM (CYP3A4; [8]): -17.6 ± 8.89%
- inhibition at 10 µM (CYP3A4; [9]): 17.6 ± 8.89%
- infection outcome (words) [3]: eliminated the infection; also recorded: full clearance of infection
- relapse after treatment ([3]; 3 weeks after treatment, also after cyclophosphamide immune suppression): no relapse was detected
- inhibition at 10 µM (Aurora B kinase): -9.92 ± 8.99%
- inhibition at 10 µM (CYP2D6): -50.7 ± 3.45%
- average weight loss at the end of the experiment ([4]; 50 mg/kg daily oral gavage): 7±8%
- day from which weight loss was significant ([4]; 100 mg/kg daily oral gavage): 5 days
- average weight loss at the end of the experiment ([4]; 100 mg/kg daily oral gavage): 11±4%
- MTD at 7 days [4]: 100 mg/kg

Source: US20230365602A1, “COMPOUND FOR USE IN THE TREATMENT OF PROTOZOAL DISEASES AND PROCESS FOR PRODUCTION OF SAID COMPOUND” (QUADREL S.R.L., priority 2020, published 2023)
